Results: PubChem BioAssay (NCI)
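96-well plates; 48 h exposure; 5 concentrations. Endpoints by linear interpolation between flanking doses. Not reached: highest tested concentration assigned. GI50 = concentration required for 50% inhibition of growth. TGI: concentration producing complete growth inhibition.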

What was measured:
Experiment in all cases: DTP human tumour cell line panel, 48 h
[1] = test system: SF-268 CNS
[2] = test system: RPMI-8226 leukemia
[3] = test system: NCI-H23 lung
[4] = test system: SW-620 colon
[5] = test system: HCT-116 colon
[6] = test system: CCRF-CEM leukemia
[7] = test system: SR leukemia
[8] = test system: A498 renal
[9] = test system: HS 578T breast
[10] = test system: T-47D breast

SMILES	TGI [1] [µM]	TGI [2] [µM]	TGI [3] [µM]	TGI [4] [µM]	TGI [5] [µM]	TGI [6] [µM]	TGI [7] [µM]	TGI [8] [µM]	GI50 [1] [µM]	TGI [9] [µM]	GI50 [2] [µM]	GI50 [3] [µM]	GI50 [10] [µM]	TGI [10] [µM]	GI50 [4] [µM]	GI50 [5] [µM]	GI50 [6] [µM]	GI50 [8] [µM]	GI50 [9] [µM]
COC(=O)CC(NC(=O)OCc1ccccc1)C(C(=O)OCc1ccccc1)C(C)(OC)OC (stereo not given)	> 100	58.8	74.7	> 100	> 100	65.4	53	> 100											
CCOC(=O)N1CCc2cc(OC)c(OC)cc2/C1=C\c1ccc(OC)c(OC)c1	> 100	> 100	> 100	> 100	40.4	72	> 100	68.5											
CCOC(=O)CCn1ncc(Cl)c(Cl)c1=O	21.6	15.3	4.66	9.7	24.2	9.76	7.28	39.6											
CN(C)c1nc2ccccc2c2c1c1c(n2Cc2ccccc2)-c2ccccc2C1=O	> 100	> 100	> 100	> 100	> 100	> 100		> 100	> 100	75.9	> 100	> 100	55.6	> 100	> 100	8.79	62.7	> 100	
c1ccc2c(c1)SCCCSCCSCCCS2	> 100		> 100	> 100	> 100	> 100	> 100							> 100					
CC1CCSC(N(C(=O)N(C)c2ccccc2)c2ccccc2)=N1 (stereo not given)	> 100	> 100	> 100	> 100	> 100	> 100		> 100											
Cc1c(NC(=S)NC(=O)c2ccc([N+](=O)[O-])cc2)c(=O)n(-c2ccccc2)n1C	> 100	> 100	> 100	> 100	> 100	> 100	> 100	> 100											
c1ccc2c(-c3nc(-c4c[nH]c5ccncc45)cs3)c[nH]c2c1	7.96	3.04	5	3.54	3.19	3.52		22.1	2.51		1.25	1.85			1.73	1.71	1.44	10	
COc1ccc(/C(Cl)=C/c2cc(OC)ccc2OC)cc1	> 100	> 100	> 100	> 100	> 100	> 100	> 100	> 100											
NNC(=O)C(=O)N/N=C1\CCC(=O)CC1C(=O)CCC(=O)Nc1ccc(Cl)cc1 (stereo not given)	> 100	> 100	> 100	> 100	> 100	> 100		> 100											
Cc1cc(N(CCC#N)CCC#N)ccc1N=Nc1ccc(Br)cc1	> 100	> 100	> 51.3	> 100	> 100	> 31.6		30											
COc1ncnc(S(=O)(=O)c2ccc(N=C3C(=O)N(CN4CCN(c5cc6c(cc5F)c(=O)c(C(=O)O)cn6C5CC5)CC4)c4ccc(Cl)cc43)cc2)c1OC	> 50	> 50	> 50	> 50	> 50				49	> 50	13.5	> 50	> 50	> 50	> 50	26.4			6.16
C1CC2CN(CCCN3CCOCC3)C(C1)O2 (stereo not given)	> 100	> 100	> 100	> 100	> 100			> 100		> 100				> 100					
CC(C)CCCC(C)[C@H]1CCC2[C@@H]3CCC4Nc5c(cnn5-c5ccccc5)C[C@]4(C)C3CC[C@@]21C (stereo not given in full)	> 100	> 100	> 100	> 100	> 100	> 100		> 100											
Cc1ccc(S(=O)(=O)c2ccccc2[N+](=O)[O-])cc1		> 100	> 100	> 100	> 100	> 100		> 100											
COc1ccc(CCc2cc(OC)cc(OC)c2)cc1	> 100	94.8	> 100	> 67.3	> 100	96.8	> 100	> 100											
CC(C)(C)C(=CS(=O)/N=C/c1ccccc1)C(C)(C)C (stereo not given)	> 100	46.3	> 100	> 100	> 100	49.8	58.9	> 100											
CC(C)(C)OC(=O)NCCCn1c2c(c3ccccc3c1=O)C(=O)c1ccccc1-2	17.7		28.8	> 100	17.8	> 100		> 100	4.56	71.6		13.4	29.6	> 100	> 100	4.71	> 100	46.1	15.8
C[Si](C)(C)/C=C\CCO	> 100	> 100	> 100	> 100	> 100	> 100	> 100	> 100											
COC(=O)C1=C(C(=O)OC)C2(C)C=CC1O2 (stereo not given)	> 100	4.04	32.4	17.2	22.3			54		72				13					
O=C(Nc1ccc(-c2nc(-c3cccc(OCCN4CCOCC4)c3)c(-c3ccnc(Br)c3)[nH]2)cc1)c1ccccc1	> 100	2.47	8.78	6.38	> 100	> 100		3.96	3.82	0.885	0.407	2.47	2.22	> 100	2.05	2.58	2.18	1.49	0.267
